The results in this text go back to publication PMC8920872 (Toxicology Reports, 2022).

Where two headings read alike, the source gives them in different places.

Holding throughout (type): cell-based
The subject of experiment [1] is JIMT-1 breast cancer cells. Description: MTT dose response assay, JIMT-1. To be noted: Homo sapiens, JIMT-1, 72 h. On the technique in general: Tetrazolium dyes change colour on reduction, which living cells bring about.
The subject of experiment [2] is MCF-10A normal-like breast epithelial cells. Nature of the experiment: MTT dose response assay, MCF-10A. The settings on record: Homo sapiens, 72 h.
Experiment [3] deals with MCF-7 breast cancer cells. Nature of the experiment: MTT dose response assay, MCF-7. To be noted: Homo sapiens, MCF7, 72 h.
[4] abbreviates: read-out: IC50 (mean of three repeats ± SD).

The IC50 is the concentration needed to halve the response being measured.

`C=C[C@@]12COC(=O)C(=C)[C@@H]1[C@@H](O)[C@H](C(=C)C(=O)OC)[C@@H](OC(=O)C(=C)CO)C2` [Vernodalol, reference compound]: the values for the IC50 in experiment [1] (setting [4]) and in experiment [2] (setting [4]) were 11.1 µM and 12.1 µM, respectively.

`C=C[C@@]12COC(=O)C(=C)[C@@H]1[C@H]1OC(=O)C(=C)[C@@H]1[C@@H](O)C2` [Vernolepin (5), Vernolepin]: the IC50 in experiment [3] was determined as 15.9 ± 0.6 µM; in experiment [1], 1.7 ± 0.3 µM; in experiment [2], 2.3 ± 0.2 µM.
